# From ChEMBL document CHEMBL1201862, “PubChem BioAssay data set” (2004)
#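 1) Cells in 96-well plates. 2) Compound, 48 h, 5 concentrations. 3) Linear interpolation between surrounding doses. 4) Unreached endpoint = highest concentration. At the GI50, growth is halved.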 Activity calls are given as the source filed them. Cut-off read from the data, not from the text of the source: active = GI50 up to about 1.1 µM and inactive = higher.
# Tests used:
# Test in all cases: growth of human tumour cells (NCI), 48 h
# SW-620 = system: SW-620
# M14 = system: M14
# EKVX = system: EKVX
# A549 = system: A549
# ACHN = system: ACHN
# HCT-15 = system: HCT-15
# SF-295 = system: SF-295
# HCT-116 = system: HCT-116
# LOX IMVI = system: LOX IMVI
# BT-549 = system: BT-549
# Malme-3M = system: Malme-3M
# 786-0 = system: 786-0
# PC-3 = system: PC-3
# NCI-H226 = system: NCI-H226
# MOLT-4 = system: MOLT-4
# COLO 205 = system: COLO 205
# OVCAR-8 = system: OVCAR-8
# DU-145 = system: DU-145
# SN12C = system: SN12C
# U-251 = system: U-251
# IGROV-1 = system: IGROV-1
# NCI-H522 = system: NCI-H522
# NCI/ADR-RES = system: NCI/ADR-RES
# OVCAR-5 = system: OVCAR-5
# UO-31 = system: UO-31
# MDA-N = system: MDA-N
# OVCAR-3 = system: OVCAR-3
# RPMI-8226 = system: RPMI-8226
# MCF7 = system: MCF7
# SK-MEL-2 = system: SK-MEL-2
# OVCAR-4 = system: OVCAR-4
# K562 = system: K562
# SNB-19 = system: SNB-19
# SF-539 = system: SF-539
# Hs-578T = system: Hs-578T
# SF-268 = system: SF-268
# UACC-62 = system: UACC-62
# MDA-MB-435 = system: MDA-MB-435
# HL-60 = system: HL-60
# MDA-MB-231 = system: MDA-MB-231
# HCC 2998 = system: HCC 2998
# NCI-H460 = system: NCI-H460
# SK-MEL-28 = system: SK-MEL-28
# T47D = system: T47D
# SR = system: SR
# TK-10 = system: TK-10
# SNB-75 = system: SNB-75
# SK-MEL-5 = system: SK-MEL-5
# CCRF-CEM = system: CCRF-CEM
# KM12 = system: KM12
# CAKI-1 = system: CAKI-1
# HOP-92 = system: HOP-92
# UACC-257 = system: UACC-257
# RXF 393 = system: RXF 393
# HOP-62 = system: HOP-62
# A498 = system: A498
# NCI-H23 = system: NCI-H23
# HT-29 = system: HT-29
# SK-OV-3 = system: SK-OV-3
smiles,measurement,setting,value
CCOC(=O)c1nc2cc(C(F)(F)F)ccc2nc1Oc1ccc(OC)cc1,GI50,SW-620,> 100 µM (inactive)
same,GI50,M14,> 100 µM (inactive)
same,GI50,EKVX,> 100 µM (inactive)
same,GI50,A549,> 100 µM (inactive)
same,GI50,ACHN,> 100 µM (inactive)
same,GI50,HCT-15,> 100 µM
same,GI50,SF-295,> 100 µM (inactive)
same,GI50,HCT-116,> 100 µM (inactive)
same,GI50,LOX IMVI,> 100 µM (inactive)
same,GI50,BT-549,> 100 µM (inactive)
same,GI50,Malme-3M,> 100 µM (inactive)
same,GI50,786-0,> 100 µM (inactive)
same,GI50,PC-3,> 100 µM (inactive)
same,GI50,NCI-H226,> 100 µM (inactive)
same,GI50,MOLT-4,45.5 µM (inactive)
same,GI50,COLO 205,> 100 µM (inactive)
same,GI50,OVCAR-8,> 100 µM (inactive)
same,GI50,DU-145,> 100 µM (inactive)
same,GI50,SN12C,> 100 µM (inactive)
same,GI50,U-251,> 100 µM (inactive)
same,GI50,IGROV-1,> 100 µM (inactive)
same,GI50,NCI-H522,72.4 µM (inactive)
same,GI50,NCI/ADR-RES,> 100 µM (inactive)
same,GI50,OVCAR-5,> 100 µM (inactive)
same,GI50,UO-31,> 100 µM (inactive)
same,GI50,MDA-N,> 100 µM (inactive)
same,GI50,OVCAR-3,> 100 µM (inactive)
same,GI50,RPMI-8226,45.4 µM (inactive)
same,GI50,MCF7,> 100 µM (inactive)
same,GI50,SK-MEL-2,> 100 µM (inactive)
same,GI50,OVCAR-4,> 100 µM (inactive)
same,GI50,K562,> 100 µM (inactive)
same,GI50,SNB-19,> 100 µM (inactive)
same,GI50,SF-539,> 100 µM (inactive)
same,GI50,Hs-578T,> 100 µM (inactive)
same,GI50,SF-268,> 100 µM (inactive)
same,GI50,UACC-62,> 100 µM (inactive)
same,GI50,MDA-MB-435,> 100 µM (inactive)
same,GI50,HL-60,> 100 µM (inactive)
same,GI50,MDA-MB-231,> 100 µM (inactive)
same,GI50,HCC 2998,> 100 µM (inactive)
same,GI50,NCI-H460,70.8 µM (inactive)
same,GI50,SK-MEL-28,> 100 µM (inactive)
same,GI50,T47D,> 100 µM (inactive)
same,GI50,SR,74.6 µM (inactive)
same,GI50,TK-10,> 100 µM (inactive)
same,GI50,SNB-75,> 100 µM (inactive)
same,GI50,SK-MEL-5,> 100 µM (inactive)
same,GI50,CCRF-CEM,66.2 µM (inactive)
same,GI50,KM12,> 100 µM (inactive)
same,GI50,CAKI-1,> 100 µM (inactive)
same,GI50,HOP-92,> 100 µM (inactive)
same,GI50,UACC-257,> 100 µM (inactive)
same,GI50,RXF 393,50.9 µM (inactive)
Cc1cc(S(=O)(=O)Nc2nnc3ccccn23)c(S)cc1Cl,GI50,SW-620,> 100 µM (inactive)
same,GI50,M14,> 100 µM (inactive)
same,GI50,EKVX,> 100 µM (inactive)
same,GI50,A549,37.2 µM (inactive)
same,GI50,ACHN,> 100 µM (inactive)
same,GI50,HCT-15,> 100 µM
same,GI50,HOP-62,56.6 µM (inactive)
same,GI50,SF-295,25.9 µM (inactive)
same,GI50,HCT-116,> 100 µM (inactive)
same,GI50,LOX IMVI,> 100 µM (inactive)
same,GI50,BT-549,> 100 µM (inactive)
same,GI50,Malme-3M,> 100 µM (inactive)
same,GI50,786-0,> 100 µM (inactive)
same,GI50,PC-3,> 100 µM (inactive)
same,GI50,MOLT-4,71.6 µM (inactive)
same,GI50,COLO 205,> 100 µM (inactive)
same,GI50,OVCAR-8,> 100 µM (inactive)
same,GI50,DU-145,> 100 µM (inactive)
same,GI50,SN12C,> 100 µM (inactive)
same,GI50,U-251,47.9 µM (inactive)
same,GI50,IGROV-1,> 100 µM (inactive)
same,GI50,NCI-H522,> 100 µM (inactive)
same,GI50,NCI/ADR-RES,> 100 µM (inactive)
same,GI50,OVCAR-5,> 100 µM (inactive)
same,GI50,UO-31,> 100 µM (inactive)
same,GI50,A498,25 µM (inactive)
same,GI50,MDA-N,> 100 µM (inactive)
same,GI50,OVCAR-3,> 100 µM (inactive)
same,GI50,RPMI-8226,> 100 µM (inactive)
same,GI50,MCF7,> 100 µM (inactive)
same,GI50,NCI-H23,> 100 µM (inactive)
same,GI50,SK-MEL-2,79.4 µM (inactive)
same,GI50,OVCAR-4,> 100 µM (inactive)
same,GI50,K562,> 100 µM (inactive)
same,GI50,SNB-19,> 100 µM (inactive)
same,GI50,SF-539,> 100 µM (inactive)
same,GI50,Hs-578T,> 100 µM (inactive)
same,GI50,UACC-62,> 100 µM (inactive)
same,GI50,MDA-MB-435,> 100 µM (inactive)
same,GI50,HL-60,> 100 µM (inactive)
same,GI50,MDA-MB-231,> 100 µM (inactive)
same,GI50,HCC 2998,> 100 µM (inactive)
same,GI50,NCI-H460,40.1 µM (inactive)
same,GI50,SK-MEL-28,> 100 µM (inactive)
same,GI50,T47D,> 100 µM (inactive)
same,GI50,SR,> 100 µM (inactive)
same,GI50,TK-10,> 100 µM (inactive)
same,GI50,SK-MEL-5,> 100 µM (inactive)
same,GI50,HT-29,> 100 µM (inactive)
same,GI50,CCRF-CEM,> 10 µM (inactive)
same,GI50,KM12,38.1 µM (inactive)
same,GI50,UACC-257,> 100 µM (inactive)
CC1(c2nc3ccccc3[nH]2)CCC(C(=O)O)C(C)(C)O1 (stereo not drawn),GI50,SW-620,> 100 µM (inactive)
same,GI50,M14,> 100 µM (inactive)
same,GI50,EKVX,> 100 µM (inactive)
same,GI50,A549,> 100 µM (inactive)
same,GI50,ACHN,> 100 µM (inactive)
same,GI50,HCT-15,> 100 µM
same,GI50,HOP-62,> 100 µM (inactive)
same,GI50,SF-295,> 100 µM (inactive)
same,GI50,HCT-116,> 100 µM (inactive)
same,GI50,LOX IMVI,> 100 µM (inactive)
same,GI50,BT-549,> 100 µM (inactive)
same,GI50,Malme-3M,> 100 µM (inactive)
same,GI50,786-0,> 100 µM (inactive)
same,GI50,SK-OV-3,> 100 µM (inactive)
same,GI50,PC-3,> 100 µM (inactive)
same,GI50,NCI-H226,> 100 µM (inactive)
same,GI50,MOLT-4,> 100 µM (inactive)
same,GI50,COLO 205,> 100 µM (inactive)
same,GI50,OVCAR-8,> 100 µM (inactive)
same,GI50,DU-145,> 100 µM (inactive)
same,GI50,SN12C,> 100 µM (inactive)
same,GI50,U-251,> 100 µM (inactive)
same,GI50,IGROV-1,> 100 µM (inactive)
same,GI50,NCI-H522,> 100 µM (inactive)
same,GI50,NCI/ADR-RES,> 100 µM (inactive)
same,GI50,OVCAR-5,> 100 µM (inactive)
same,GI50,UO-31,> 100 µM (inactive)
same,GI50,MDA-N,> 100 µM (inactive)
same,GI50,OVCAR-3,> 100 µM (inactive)
same,GI50,RPMI-8226,> 100 µM (inactive)
same,GI50,MCF7,> 100 µM (inactive)
same,GI50,NCI-H23,> 100 µM (inactive)
same,GI50,SK-MEL-2,> 100 µM (inactive)
same,GI50,OVCAR-4,> 100 µM (inactive)
same,GI50,K562,> 100 µM (inactive)
same,GI50,SNB-19,> 100 µM (inactive)
same,GI50,SF-539,> 100 µM (inactive)
same,GI50,Hs-578T,> 100 µM (inactive)
same,GI50,SF-268,> 100 µM (inactive)
same,GI50,UACC-62,> 100 µM (inactive)
same,GI50,MDA-MB-435,> 100 µM (inactive)
same,GI50,HL-60,> 100 µM (inactive)
same,GI50,MDA-MB-231,> 100 µM (inactive)
same,GI50,HCC 2998,> 100 µM (inactive)
same,GI50,SK-MEL-28,> 100 µM (inactive)
same,GI50,T47D,> 100 µM (inactive)
same,GI50,SR,> 100 µM (inactive)
same,GI50,TK-10,> 100 µM (inactive)
same,GI50,SNB-75,39.8 µM (inactive)
same,GI50,SK-MEL-5,> 100 µM (inactive)
same,GI50,HT-29,> 100 µM (inactive)
same,GI50,CCRF-CEM,> 100 µM (inactive)
same,GI50,KM12,26.5 µM (inactive)
same,GI50,CAKI-1,> 100 µM (inactive)
same,GI50,HOP-92,> 100 µM (inactive)
same,GI50,UACC-257,> 100 µM (inactive)
same,GI50,RXF 393,> 100 µM (inactive)
